Measured values reported in ChEMBL document CHEMBL4184276, “Curcumin inspired 2-chloro/phenoxy quinoline analogues: Synthesis and biological evaluation as potential anticancer agents” (Bioorg Med Chem Lett, 2018).
Activity calls are given as the source filed them. The calls are words filed in the database; no cut-off is given here.

What was measured:
[1] = test system: PC-3; test: Cell cycle arrest in human PC3 cells assessed as accumulation at G0/G1 phase at 2 uM after 24 hrs by propidium iodide staining based flow cytometry (reference value: 55.61%); assay type: functional
[2] = test system: PC-3; test: Cell cycle arrest in human PC3 cells assessed as accumulation at S phase at 4 uM after 24 hrs by propidium iodide staining based flow cytometry (reference value: 9.48%); assay type: functional
[3] = test system: 4T1; test: Cytotoxicity against mouse 4T1 cells assessed as reduction in cell viability after 48 hrs by MTT assay; assay type: functional, cell-based; settings: 4T1, 48 h
[4] = test system: PC-3; test: Cell cycle arrest in human PC3 cells assessed as accumulation at G2/M phase at 2 uM after 24 hrs by propidium iodide staining based flow cytometry (reference value: 34.49%); assay type: functional
[5] = test system: PC-3; test: Cell cycle arrest in human PC3 cells assessed as accumulation at sub-G1 phase at 2 uM after 24 hrs by propidium iodide staining based flow cytometry (reference value: 0.43%); assay type: functional
[6] = test system: PC-3; test: Induction of apoptosis in human PC3 cells assessed as cell membrane blebbing at 1 uM after 24 hrs by acridine orange/ethidium bromide staining based fluorescence microscopic method; assay type: functional
[7] = test system: PC-3; test: Induction of apoptosis in human PC3 cells assessed as chromatin condensation at 1 uM after 24 hrs by acridine orange/ethidium bromide staining based fluorescence microscopic method; assay type: functional, cell-based
[8] = test system: DU-145; test: Cytotoxicity against human DU145 cells assessed as reduction in cell viability after 48 hrs by MTT assay; assay type: functional, cell-based; settings: DU-145, 48 h
[9] = test system: PC-3; test: Induction of apoptosis in human PC3 cells assessed as late apoptotic cells at 2 uM after 24 hrs by Annexin V-FITC/propidium iodide staining based flow cytometry (reference value: 7.8%); assay type: functional
[10] = test system: PC-3; test: Induction of apoptosis in human PC3 cells assessed as live cells at 2 uM after 24 hrs by Annexin V-FITC/propidium iodide staining based flow cytometry (reference value: 84.82%); assay type: functional
[11] = test system: PC-3; test: Cell cycle arrest in human PC3 cells assessed as accumulation at G2/M phase after 24 hrs by propidium iodide staining based flow cytometry; assay type: functional
[12] = test system: HeLa; test: Cytotoxicity against human HeLa cells assessed as reduction in cell viability after 48 hrs by MTT assay; assay type: functional, cell-based
[13] = test system: PC-3; test: Cytotoxicity against human PC3 cells assessed as reduction in cell viability after 48 hrs by MTT assay; assay type: functional, cell-based; settings: PC-3, 48 h
[14] = test system: PC-3; test: Induction of apoptosis in human PC3 cells assessed as late apoptotic cells at 4 uM after 24 hrs by Annexin V-FITC/propidium iodide staining based flow cytometry (reference value: 7.8%); assay type: functional
[15] = test system: PC-3; test: Induction of apoptosis in human PC3 cells assessed as necrotic cells at 4 uM after 24 hrs by Annexin V-FITC/propidium iodide staining based flow cytometry (reference value: 0.28%); assay type: functional
[16] = test system: PC-3; test: Induction of apoptosis in human PC3 cells assessed as non-uniform distribution of chromatin at 2 uM after 24 hrs by acridine orange/ethidium bromide staining based fluorescence microscopic method; assay type: functional, cell-based
[17] = test system: PC-3; test: Induction of ROS generation in human PC3 cells at 1 to 2 uM after 24 hrs by DCFDA staining based flow cytometry; assay type: functional, cell-based
[18] = test system: HGC-27; test: Cytotoxicity against human HGC27 cells assessed as reduction in cell viability after 48 hrs by MTT assay; assay type: functional, cell-based; settings: HGC-27, 48 h
[19] = test system: PC-3; test: Induction of apoptosis in human PC3 cells assessed as early apoptotic cells at 4 uM after 24 hrs by Annexin V-FITC/propidium iodide staining based flow cytometry (reference value: 7.1%); assay type: functional
[20] = test system: PC-3; test: Cell cycle arrest in human PC3 cells assessed as accumulation at G0/G1 phase at 4 uM after 24 hrs by propidium iodide staining based flow cytometry (reference value: 55.61%); assay type: functional
[21] = test system: PC-3; test: Cell cycle arrest in human PC3 cells assessed as accumulation at G2/M phase at 4 uM after 24 hrs by propidium iodide staining based flow cytometry (reference value: 34.49%); assay type: functional
[22] = test system: PC-3; test: Induction of apoptosis in human PC3 cells assessed as fragmentation of chromatin at 4 uM after 24 hrs by acridine orange/ethidium bromide staining based fluorescence microscopic method; assay type: functional, cell-based
[23] = Aqueous solubility in milli-Q water at 2 mg incubated for 5 mins followed by sonication for 1 mins measured after 24 hrs by UV-Visible spectroscopic method; assay type: physicochemical
[24] = test system: NCI-H460; test: Cytotoxicity against human NCI-H460 cells assessed as reduction in cell viability after 48 hrs by MTT assay; assay type: functional, cell-based; settings: NCI-H460, 48 h
[25] = test system: PC-3; test: Potency index, ratio of curcumin IC50 to compound IC50 for human PC3 cells; assay type: functional
[26] = test system: PC-3; test: Induction of apoptosis in human PC3 cells assessed as condensed and pyknotic nuclei formation at 4 uM after 24 hrs by DAPI staining based fluorescence microscopic method; assay type: functional, cell-based
[27] = test system: PC-3; test: Cell cycle arrest in human PC3 cells assessed as accumulation at S phase at 2 uM after 24 hrs by propidium iodide staining based flow cytometry (reference value: 9.48%); assay type: functional
[28] = test system: PC-3; test: Induction of apoptosis in human PC3 cells assessed as early apoptotic cells at 2 uM after 24 hrs by Annexin V-FITC/propidium iodide staining based flow cytometry (reference value: 7.1%); assay type: functional
[29] = test system: PC-3; test: Induction of apoptosis in human PC3 cells assessed as live cells at 4 uM after 24 hrs by Annexin V-FITC/propidium iodide staining based flow cytometry (reference value: 84.82%); assay type: functional
[30] = test system: NCI-H460; test: Potency index, ratio of curcumin IC50 to compound IC50 for human NCI-H460 cells; assay type: functional
[31] = test system: PC-3; test: Cell cycle arrest in human PC3 cells assessed as accumulation at sub-G1 phase at 4 uM after 24 hrs by propidium iodide staining based flow cytometry (reference value: 0.43%); assay type: functional
[32] = test system: DU-145; test: Potency index, ratio of curcumin IC50 to compound IC50 for human DU145 cells; assay type: functional
[33] = test system: PC-3; test: Induction of apoptosis in human PC3 cells assessed as necrotic cells at 2 uM after 24 hrs by Annexin V-FITC/propidium iodide staining based flow cytometry (reference value: 0.28%); assay type: functional

SMILES: COc1cc(OC)c(OC)cc1/C=C/C(=O)/C=C/c1cc2ccccc2nc1Cl
- Activity [1]: 50.4%
- Activity [2]: 6.86%
- IC50 [3]: 1.81 µM
- Activity [4]: 38.16%
- Activity [5]: 0.9%
- Activity [6]: Active
- Activity [7]: Active
- IC50 [8]: 3.99 µM
- Activity [9]: 18.51%
- Activity [10]: 73.21%
- Activity [11]: Dose-dependent effect
- IC50 [12]: 5.41 µM
- IC50 [13]: 3.12 µM
- Activity [14]: 29.17%
- Activity [15]: 2.8%
- Activity [16]: Active
- Activity [17]: Active
- IC50 [18]: 8.73 µM
- Activity [19]: 7.97%
- Activity [20]: 46.86%
- Activity [21]: 45.74%
- Activity [22]: Active
- solubility [23]: Soluble
- IC50 [24]: 3.96 µM
- Ratio IC50 [25]: 6
- Activity [26]: Active
- Activity [27]: 10.02%
- Activity [28]: 6.07%
- Activity [29]: 60.06%
- Ratio IC50 [30]: 4.3
- Activity [31]: 0.6%
- Ratio IC50 [32]: 8.3
- Activity [33]: 2.21%
